Assay results as given in patent publication US9815883B2, “Inhibiting peptides derived from TREM-like transcript 1 (TLT-1) and uses thereof” (Institut National de la Sante et de la Recherche Medicale …, priority 2010, dated 2017).

How the values were obtained:
[1] = tested on: male Balb/c mice; assay: Caecal ligation and puncture (CLP) polymicrobial sepsis model; format: in vivo, mouse
Experimental: Adult male Balb/c mice (20-23 g) were subjected to caecal ligation and puncture under isoflurane anaesthesia and were randomly grouped (n=5-10 per group) to receive a single LR17 (100 μg in 0.2 mL NaCl 0.9%), scrambled-LR17 ([…] in 0.2 mL NaCl 0.9%), or 0.2 mL NaCl 0.9% i.p. injection. After 24 hours, animals were killed under anaesthesia. Results are mean±SD. p values are *p<0.05, **p<0.01, ***p<0.001 compared with control animals.
(A-B) Adult male Balb/c mice (20-23 g) were subjected to caecal ligation and puncture under isoflurane anaesthesia and were randomly grouped (n=25-40 per group) to receive a LR17, scrambled-LR17, or 0.2 mL NaCl 0.9% i.p. injection at indicated times. Survival was monitored over 1 wk and analyzed by Log Rank test.
Male Balb/c mice (4-6 weeks) were anesthetized with isoflurane. The cecum was exposed through a 1.0 cm abdominal midline incision and subjected to a ligation of the distal half followed by one puncture with a G21 needle. A small amount of stool was expelled from the puncture to ensure patency. The cecum was replaced into the peritoneal cavity and the abdominal incision closed in two layers. After surgery, all mice were injected s.c. with 0.5 mL of 0.9% NaCl solution for fluid resuscitation. The animals were randomly grouped and treated LR17 or LR17-scrambled as control in 250 μL 0.9% NaCl solution and administered i.p. In order to determine the effect of various doses of LR17 at different times, mice were treated with 50, 100 or 200 μg of LR17 at H1 after surgery, or with 3 injections of 100 μg at 2, 6 and 24 hours or with 100 μg in one injection at 24 hours after CLP and then monitored for survival. Five additional animals per group were killed under anaesthesia at 24 h after CLP for the determination of bacterial count and cytokines levels. Peritoneal lavage fluid was obtained using 2 mL RPMI 1640 (EuroBio), and blood was collected by cardiac puncture. Concentrations of plasma cytokines were determined by ELISA (R&Dsystems). For the assessment of bacterial counts, blood and crushed spleen were plated in serial log dilutions on tryptic soy supplemented with 5% sheep blood agar plates. After plating, tryptic soy agar plates were incubated at 37° C. aerobically for 24 h and anaerobically for 48 h. Results are expressed as CFU per ml of blood or per gram of spleen.

[2] = tested on: TREM-1 ligand binding to immobilized TREM-1; assay: Surface plasmon resonance, LPS-stimulated neutrophils supernatants on rsTREM-1-coated sensor chip; parameters: species or system human; settings: FIG. 1D
Experimental: (C-D) Surface plasmon resonance assays of LPS-stimulated neutrophils supernatants to a rsTREM-1-coated sensorship in absence (C) or presence (D) of LR17.
Detection of TREM-1-ligand on LPS-stimulated neutrophils supernatants was assessed by binding to a recombinant soluble form of TREM-1 (rsTREM-1) coated on a CM5 sensor chip with the BIAcore X instrument at 25° C. with a flow rate of […]. Binding specificity was verified through competition with the soluble rsTREM-1. Inhibition of TREM-1-ligand binding by LR17 was assessed.

[3] = tested on: TREM-1; assay: CARD9-MALT1-BCL10 complex formation (immunoprecipitation) in neutrophils; format: cell-based, human; settings: peptide 30 μg/mL
Experimental: (B) CARD9-MALT1-BCL10 complex formation: Immunoblot of MALT-1 after immunoprecipitation with anti-BCL10 mAb of lysates of neutrophils stimulated for 20 minutes.
(B) […] complex formation: Immunoblot of MALT-1 after immunoprecipitation with anti-BCL10 mAb of lysates of neutrophils stimulated for 20 minutes.
Cells were lysed with CytoBuster Protein Extraction Reagent (Novagen). Samples were normalized by total protein concentration and lysates were pre-cleared before performing Immunoprecipitation. Pre-cleared lysates were then incubated overnight at 4° C. with rabbit-anti-Bcl10 mAb (Cell Signaling) or rabbit-anti-CARD9 (Antibodies Online). Thereafter, anti-rabbit-Ig beads (eBioscience) were added for 1 hour at room temperature. Beads were then washed 3 times, denatured in Laemli buffer 5 minutes at 95° C. and centrifuged at 16,000 g for 1 min.

[4] = tested on: TREM-1; assay: Protein phosphorylation analysis in stimulated neutrophils; format: cell-based, human
Experimental: For these experiments, isolated human neutrophils were stimulated with TREM-1 agonist (αTREM-1, 5 μg/mL) with or without LR17 (30 μg/mL) or control LR17-scrambled peptide (30 μg/mL) at indicated times. Data are representative of at least 5 different experiments. Results are mean±SD. p values are ***p<0.001 **p<0.01 *p<0.05 [αTREM-1+LR17] versus [αTREM-1].
(A) Activation of TREM-1 phosphorylation pathway: Western Blot of lysates of neutrophils stimulated for 1, 3, 10, 30 and 60 minutes, analysed with antibody to phospho (p)-p38 and (p)-ERK1/2.
For these experiments, isolated human neutrophils or monocytes were stimulated with LPS (0.1 μg/mL) and TREM-1 agonist (αTREM-1, 5 μg/mL) with or without LR17 (30 μg/mL) or control LR17-scrambled peptide (30 μg/mL), at indicated times. Data are representative of at least 5 different experiments. Results are mean±SD. p values are ***p<0.001 **p<0.01 *p<0.05 [LPS/LR17] versus [LPS] or [LPS+αTREM-1/LR17] versus [LPS+αTREM-1].
(A) Western Blot of lysates of neutrophils stimulated for 1, 3, 10, 30 and 60 minutes, analysed with antibody to phosphor (p)-p38 and (p)-ERK1/2.
Depending on the experiment, cells were stimulated in complete medium supplemented with 100 ng/mL of E. Coli LPS (0111:B4, Sigma-Aldrich), anti-TREM-1 mAb (R&Dsystems) and TLT-1-peptides at different times and concentrations on 96-wells plates (Greiner Bio One). Supernatants were collected for cytokine measurements and cells subjected to flow cytometry or lysed for protein phosphorylation analyses and NFkB activity measurement.
Stimulated PMNs were lysed at 1, 3, 10, 30 and 60 minutes with PhosphoSafe Extraction Reagent (Novagen) and centrifuged for 5 minutes at 16,000 g at 4° C. to collect the supernatant. Protein concentration was determined according to Bradford's method (Pierce). […] Alternatively, PMNs were analyzed after 20 minutes of stimulation for a panel of multiple phosphorylated proteins by immunoblot (Human Phospho-Kinase Array, R&Dsystems). Acquisition and quantitative signals density analyses were done by LAS-4000 imager and Multi-Gauge software (Fujifilm).

LQEEDAGEYGCMVDGAR (listed as Homo sapiens) [LR17]
plasma IL-6 and IL-10 concentrations ([1]; 100 μg i.p. 2 hours after surgery, 24 hours after surgery): decreased | repeated injections versus single dose administration ([1]; 3 injections of 100 μg at 2, 6 and 24 hours): not superior | protection against lethality (survival) ([1]; 50, 100 or 200 μg, also administered 24 h after onset of sepsis, survival over 1 wk, Log Rank test): dose-dependent significant protection | septicaemia (blood bacterial counts) ([1]; 24 hours): almost completely prevented septicaemia | IL-6 and IL-10 in broncho-alveolar lavage fluid and peritoneal lavage fluid ([1]; 24 hours after surgery): decreased | lung histological alterations ([1]; 24 hours after the CLP): attenuated | cell infiltration in peritoneum and alveolar space ([1]; mouse, in vivo): reduced | coagulation abnormalities (D-dimer and TATc plasma and alveolar concentrations) ([1]; mouse, in vivo): prevented | plasma levels of C5a, IL-1ra, IL16, MCP-1, MIP-la, MIP-2 (cytokine array) ([1]; mouse, in vivo): decreased concentration | binding of the TREM-1 ligand to immobilized TREM-1 [2]: able to block the binding | CARD9-MALT1-BCL10 complex formation ([3]; LPS 0.1 μg/mL with or without αTREM-1): decreased | CARD9-MALT1-BCL10 complex formation ([3]; αTREM-1 5 μg/mL, 20 minutes): reversed | phosphorylation of p38 and ERK1/2 ([4]; LPS 0.1 μg/mL with or without αTREM-1, peptide 30 μg/mL): decreased | phosphorylation of mTOR, Lyn, AKT, MSK1/2, MEK 1/2, GSK 3α/β, RSK, and p53 (phosphoprotein arrays) ([4]; TREM-1 signalling, data not shown): reduced | p38 MAPK and ERK 1/2 phosphorylation ([4]; αTREM-1 5 μg/mL, peptide 30 μg/mL, 1-60 minutes): partly abrogated
